The values below come from US20220054658A1, “CONJUGATES” (Transfection Holdings Limited, priority 2018, published 2022).

The subject of data set [1] is human embryonic kidney cells (HEK293). Briefly: Cytotoxicity against HEK293 cells (CellTitre-Glo). The class given is cell-based. The note with it: 100 μM, HEK293, 24 hours. The method, then:
A sample compound was incubated at 100 μM with human embryonic kidney cells (HEK293) in Greiner 384 cell star plates for 24 hours before adding CellTitre-Glo® (Promega), an indicator of cell viability giving a luminescent output. In this assay, compounds showing greater than 40% cytotoxicity over two test runs at 100 μM are deemed to have shown cytotoxicity.

In a further data set the test system is C. elegans. Description: Conjugate uptake in C. elegans (dye and praziquantel conjugates, fluorescence microscopy). Format: in vivo, Caenorhabditis elegans. As to conditions: for uptake: location of fluorescence in C. elegans: 50 μM. The method, then:
Nematode Growth Media (NGM) plates containing C. elegans were washed with 1.0-1.5 mL of standard M9 buffer and the washes were collected in an Eppendorf tube. The liquid containing the C. elegans was then spun for 1 min at room temperature at 10,000 rpm. The supernatant was removed, and fresh M9 buffer was added (500 μL) to generate a new stock solution of M9 buffer containing the C. elegans.
A C. elegans suspension (100 μL) was added a defined amount of M9 buffer (determined by the final desired concentration of compound to be tested: 399 μL in the case of the BODIPY tagged derivatives) contained within a separate Eppendorf tube. To this was then added a 25 mM solution of the compound in DMSO (1 μL). The resulting suspension was mixed using a vortex instrument.
The resulting mixture was incubated at room temperature for 2 to 4 h. in the dark (using aluminium foil to screen the tube, which was also stored in a cabinet).
Other samples were incubated overnight. Here, OP50 bacteria (3 μL) were added to the worms for feeding purposes, and the worms were kept in the dark at 20° C.
After the incubation, the tube contents were mixed gently by hand (typically by simple rotation of the tube), so as to achieve a homogenous suspension. A sample of the suspension (250 μL) was taken and mixed with M9 buffer (500 μL). The resulting suspension was placed in a centrifuge and spun at room temperature at 10,000 rpm for 1 min. The supernatant was removed, and the washing process was repeated twice more, each time using further quantities of fresh M9 buffer (500 μL each time). After the final washing sufficient supernatant was removed so as to leave a final sample volume of approximate 30 μL.
A 1.5% agarose solution in water was pre-warmed for 60 to 90 s. in a standard household style microwave (set to Power 4). Two drops of this solution was removed and placed on a glass slide. The glass slide was covered with a second glass slide. After 1 min., the slides were slid carefully apart, with the agarose remaining on one of the slides. Onto this slide was placed an aliquot of the final C. elegans solution (15 to 20 μL). To this was added a 20 mM sodium azide solution (5 μL) to inhibit nematode mobility. Vaseline was then placed around the agarose area before replacing the second slide. The slides were not pressed together.
The nematodes were then analysed using a Zeiss Axiskop 2 Plus microscope with a Hamamatsu Orca-ER (CA 742-95) camera. The images were resolved using OpenLab on a Mac operating system.
Compounds 1-11 were evaluated after 3 h and overnight incubation at a 50 μM concentration using the general uptake protocol described for C. elegans.
In order to compare the ability of a conjugate to improve the uptake of the drug praziquantel, two praziquantel derivatives were generated. Praziquantel was tagged with a BODIPY fluorescent tag (compound 12) and incorporated into a conjugate of the invention (compound 13). Compounds 12 and 13 were evaluated at a concentration of 50 μM using the C. elegans uptake protocol described above for compounds 1-11. Microscopic readings were taken after 3, 24 and 72 h.

For the next data set, the system named is P. falciparum. Briefly: Plasmodium falciparum testing: uptake by infected and non-infected red blood cells. As to conditions: 25 μM, 45 minutes, 37° C., synchronised stage and mix-stage cultures. The class given is cell-based. The method, then: Compounds 1, 5, 9, 10 and 11 were tested for uptake in both synchronised stage and mix-stage cultures at 25 μM concentrations.

The subject of a further data set is T. brucei. Briefly: Trypanosoma brucei testing: uptake. Format: cell-based. The note with it: 10-25 μM, 45 minutes, 37° C.
The next data set concerns T. annulata. Briefly: Theileria annulata testing: uptake. Format: cell-based. As to conditions: 1 hour, 37° C. The method, then: T. annulata were cultured using RPMI 1640 with 10% Albumax II (Thermo-Fisher) serum. A standard hemocytometer was used to calculate the concentration of cells in the parent culture. […] For each compound and concentration to be tested, 2 mL of the culture were centrifuged at 1,000 rpm for 5 minutes. The medium was removed before the cells were resuspended in 950 μL of complete medium containing the compound to be tested at the desired concentration. This was prepared from a 100 mM stock solution of compound in DMSO. Once the cells were resuspended they were transferred to a 5 well plate (1 mL capacity per well). They were then incubated for 1 hour at 37° C. in an atmosphere of 5% CO2 in air. After the incubations were complete the contents of each well were transferred to a 10 mL centrifuge tube. Cold RPMI 1640 (Thermofisher) or HBSS added to obtain a volume of 5 mL. The suspension was then centrifuged at 1,000 rpm and at 4° C. for 5 minutes. […] After the final washing the pellet of cells was resuspended in a minimum amount of RPMI 1640 and then spotted onto a glass slide. The slide was then covered with a cover slip and analysed using Olympus BX60 UV microscope system with a Spot RT3 camera and Spot Image software with a FITC fluorescent filter.

The next data set has as its system Theileria parva. Briefly: Uptake in erythrocyte infected with Theileria parva (FIG. 2(b)). The class given is cell-based.
Data set [2] relates to Gram-negative and Gram-positive bacteria. Description: Bacteria testing: uptake in bacterial cultures. The class given is cell-based. As to conditions: 25 μM, 45 minutes, 37° C.
The test system of another data set is L. passim strain PRA-403. Description: Lotmaria passim parasite uptake test. The note with it: 1 μM and 100 μM, room temperature, 45 min. The class given is cell-based. The method, then: 100 mM stock solutions of BODIPY derivatives were prepared with dimethylsulfoxide (DMSO). L passim strain PRA-403 (ATCC) was cultured in modified medium for C. bombi (Tognazzo et al.). The parasite culture was centrifuged, supernatant was removed and 500 μL of L passim medium with compound (final concentration 500, 100, 10 or 1 μM for BODIPY derivatives) or DMSO (0.1%) control was added. Incubated for 45 min at room temperature.
Uptake tests were performed at 1 μM and 100 μM final concentration of CJ-BODIPY derivatives. After incubation at room temperature for 45 min, fluorescence intensities were evaluated using a microplate reader.

The next data set has as its system Escherichia coli. Description: Bacteria testing: uptake in Escherichia coli. The note with it: FIG. 2(e); 25 μM, 45 minutes, 37° C.
A further data set deals with Enterococcus faecalis. Description: Bacteria testing: uptake in Enterococcus faecalis. As to conditions: FIG. 2(f); 25 μM, 45 minutes, 37° C.
The subject of another data set is Staphylococcus aureus. Description: Bacteria testing: uptake in Staphylococcus aureus. As to conditions: FIG. 2(g); 25 μM, 45 minutes, 37° C.
For a further data set, the system named is B. bovis Texas strain. Briefly: Short-term uptake test in B. bovis infected RBCs (confocal microscopy).

The structures appear in SMILES notation. “Also recorded” adds a separate entry of the source.

Description for B. bovis Texas strain: The parasite culture was centrifuged and washed once with GIT medium. RBC's were pellet down, and 20 μl infected RBC mixture (10 μl packed infected RBC+10 μl GIT) was prepared. Then, 180 μl GIT medium with compound the compound to be evaluated (final concentration 25 μM for BODIPY derivatives and 100 μM for phiLOV derivatives) or DMSO (0.1%)/PBS control was added. The samples were incubated for 45 min at 37° C. (Samples were stained 1 μg/mL diluted Hoechst 33342 in GIT medium). After incubation, the samples were centrifuged and the pellet was washed with GIT medium (3×). A final solution of 50% haematocrit infected RBC mixture was transferred to slides to be observed by confocal laser microscopy (Nikon A1).
Uptake experiments were performed by incubating the parasite (˜5% Parasitized Erythrocytes (PPE)) with each derivative at 25 μM and 37° C. for 45 min. After incubation, the fluorescence intensities were calculated from confocal microscope images.
The phiLOV double mutant (R475G, K476C) was used to generate derivatives P11, P1, P8, and P3 which were tested for uptake in B. bovis Texas strain using phiLOV as a control. The derivatives and the control were incubated at 100 μM and 37° C. for 45 min. After incubation, the samples were analysed under confocal microscopy using Hoeschst 33342 (Thermofisher) as co-stain.
Description for Enterococcus faecalis: (§1) Bacteria cultured by inoculating LB media (Thermo-Fisher) with the desired bacteria and incubating overnight at 37° C. under an atmosphere of air. The OD600 was then measured and the concentration of bacteria calculated from this. The cultures were then diluted appropriately to give a concentration of 2×10^5 cells per mL. 1 mL of this culture was placed in a 5 mL centrifuge tube then centrifuged at 13,000 rpm for 5 minutes. The supernatant was removed and replaced with 1 mL of 25 μM solution of compound in media. The cultures were incubated for 45 minutes at 37° C. The cultures were centrifuged as before, the supernatant removed and the pellet resuspended in 1 mL of PBS. The cells were washed in this manner twice more. After the final washing the pellet was resuspended in 35 μL of water and spotted onto a slide. The slide was then protected with a coverslide before the images were analysed using an Olympus UV microscope system with a Leica imaging analysis software with a FITC fluorescent filter.
Description for Escherichia coli: as §1
Description for Staphylococcus aureus: as §1

`CC1(C)OCC(C)(C)C(C(=O)N/C=C/C(=O)NCCCCCO[Si](c2ccccc2)(c2ccccc2)C(C)(C)C)O1` (stereo not shown): in data set [1], the “outcome in the cytotoxicity screen” value was “inactive in the screen”. The cytotoxicity in [1] (CellTitre-Glo, greater than 40% deemed cytotoxic) was 3.7±0.6%.

For the molecule `CC1=CC(C)=[N+]2C1=Cc1ccc(CCCn3cc(CCNC(=O)/C=C/NC(=O)[C@H](O)C(C)(C)CO)nn3)n1[B-]2(F)F` [Compound 5, (R,E)-N-((((3-[4,4-Difluoro-5,7-dimethyl-4-bora-3a,4a-diaza-s-indacene-3-yl]propyl)-1H-1,2,3-triazol-4-yl)ethylamino)-3-oxoprop-1-enyl)-2,4-dihydroxy-3,3-dimethylbutanamide], the “uptake: location of fluorescence in C. elegans” value was “small amounts of compound 5 were present in the gut cells, and the gut lumen of the larval stages, as well as in the pharynx, gut lumen and gut cells of adult nematodes; also recorded: not detected in the embryos” in the data set on C. elegans (3 h incubation); “fluorescence remained in the pharynx, gut cells and gut lumen of both the larval and adult stages; also recorded: Fluorescence was also detected in the early stage of egg development, but not in the embryos” in the data set on C. elegans (20 h / overnight incubation). Further, the “distribution in C. elegans” value in the data set with C. elegans (FIG. 2(h), fluorescence microscopy) is listed as “localised with the digestive track of C. elegans”. Moreover, the “uptake by infected and non-infected red blood cells” value in the data set on P. falciparum is listed as “selectively taken up by infected red blood cells; also recorded: accumulated within the parasite itself; also recorded: Non-infected erythrocytes do not take up the conjugate”. Also, the “uptake in T. brucei” value in the data set with T. brucei was “taken up by T. brucei and forms small vesicles all over the trypanosome body, whilst not accumulating neither in the lysosome nor in the nucleus, but rather in a vesicle between the flagellar pocket and the lysosome; also recorded: taken up by T. brucei and forms small vesicles all over the trypanosome body”. Besides, in the data set with T. annulata, the “uptake in T. annulata” value is “taken up by T. annulata; also recorded: selectively accumulated within the intracellular parasite”. The “accumulation in Theileria parva infected erythrocyte” value in the data set with Theileria parva is recorded as “seen to accumulate within the parasite”. In addition, the “uptake in bacterial cultures” value in data set [2] is “Uptake was seen both in the case of Gram-negative and Gram-positive bacteria”. Moreover, the “uptake in L. passim (fluorescence intensity, microplate reader)” value in the data set on L. passim strain PRA-403 was “relatively low uptake”. Also, the “uptake by Escherichia coli” value in the data set on Escherichia coli is reported as “uptake of the conjugate by the organism”. In addition, the “uptake by Enterococcus faecalis” value in the data set with Enterococcus faecalis is “uptake of the conjugate by the organism”. In addition, the “uptake by Staphylococcus aureus” value in the data set on Staphylococcus aureus was “uptake of the conjugate by the organism”. In addition, the “uptake compared to compound 1 (% less)” value in the data set on B. bovis Texas strain (25 μM, 37° C., 45 min, ~5% PPE) came out at 30%. Moreover, the “uptake by non-infected erythrocytes (B. bovis culture)” value in the data set on B. bovis Texas strain (FIG. 2(a)) is given as “Non-infected erythrocytes do not take up the conjugate”.
